In PubChem BioAssay AID2060615 (Molecular Pharmacology Branch, DTP, NCI, 2025):
Where “and” joins values, the source holds several entries; their conditions need not be identical. Equal entries are not always repeated. Values belong to the molecule of their own block, whether it stands above or below them.

System: 496974-208-R-J2-PDC complex spheroids, growth % test/control
Test: Anticancer human tumor 496974-208-R-J2-PDC patient-derived pancreatic carcinoma cell line growth inhibition [CLK]
Conditions: for viability, T/C: stronger effect = lower value
Outline: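 Patient-derived tumor cells grown as complex spheroids with HUVEC endothelial cells and mesenchymal stem cells, treated with drug combinations. Concentrations descend in half-log steps from near clinical Cmax, or from 10 microM if Cmax unknown.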

[1] = curve of first compound, second compound 0.0316 µM
[2] = curve of first compound, second compound 0.1 µM
[3] = curve of first compound, second compound 0.316 µM
[4] = curve of first compound, second compound 1 µM
[5] = curve of first compound, second compound 3.16 µM
[6] = curve of first compound, second compound 10 µM
[7] = second compound 0.0316 µM, first compound 0.0316 µM
[8] = second compound 0.0316 µM, first compound 0.1 µM
[9] = second compound 0.0316 µM, first compound 0.316 µM
[10] = second compound 0.0316 µM, first compound 1 µM
[11] = second compound 0.0316 µM, first compound 3.16 µM
[12] = second compound 0.0316 µM, first compound 10 µM
[13] = second compound 0.1 µM, first compound 0.0316 µM
[14] = second compound 0.1 µM, first compound 0.1 µM
[15] = second compound 0.1 µM, first compound 0.316 µM
[16] = second compound 0.1 µM, first compound 1 µM
[17] = second compound 0.1 µM, first compound 3.16 µM
[18] = second compound 0.1 µM, first compound 10 µM
[19] = second compound 0.316 µM, first compound 0.0316 µM
[20] = second compound 0.316 µM, first compound 0.1 µM
[21] = second compound 0.316 µM, first compound 0.316 µM
[22] = second compound 0.316 µM, first compound 1 µM
[23] = second compound 0.316 µM, first compound 3.16 µM
[24] = second compound 0.316 µM, first compound 10 µM
[25] = second compound 1 µM, first compound 0.0316 µM
[26] = second compound 1 µM, first compound 0.1 µM
[27] = second compound 1 µM, first compound 0.316 µM
[28] = second compound 1 µM, first compound 1 µM
[29] = second compound 1 µM, first compound 3.16 µM
[30] = second compound 1 µM, first compound 10 µM
[31] = second compound 3.16 µM, first compound 0.0316 µM
[32] = second compound 3.16 µM, first compound 0.1 µM
[33] = second compound 3.16 µM, first compound 0.316 µM
[34] = second compound 3.16 µM, first compound 1 µM
[35] = second compound 3.16 µM, first compound 3.16 µM
[36] = second compound 3.16 µM, first compound 10 µM
[37] = second compound 10 µM, first compound 0.0316 µM
[38] = second compound 10 µM, first compound 0.1 µM
[39] = second compound 10 µM, first compound 0.316 µM
[40] = second compound 10 µM, first compound 1 µM
[41] = second compound 10 µM, first compound 3.16 µM
[42] = second compound 10 µM, first compound 10 µM
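Also: spheroids exposed to the drugs for 7 days before readout.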
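For viability, T/C in this document: 100% = DMSO vehicle control wells.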

SMILES: CC(C)CC(NC(=O)C(Cc1ccccc1)NC(=O)c1cnccn1)B(O)O (stereo unspecified) + CN1CCN(c2cc(C(=O)Nc3cc4cc(-c5cnn(C)c5)ccc4cn3)ccn2)CC1
- IC50 [1]: 0.00454 µM
- IC50 [2]: 0.00384 µM
- IC50 [3]: < 0.000949 µM
- IC50 [4]: < 0.000949 µM
- IC50 [5]: < 0.000949 µM
- IC50 [6]: < 0.000949 µM
- viability, T/C (second compound 0.0316 µM, first compound 0.000949 µM): 104%
- viability, T/C (second compound 0.0316 µM, first compound 0.003 µM): 77.2%
- viability, T/C (second compound 0.0316 µM, first compound 0.00949 µM): 1.7%
- viability, T/C (second compound 0.0316 µM, first compound 0.03 µM): 0.32%
- viability, T/C (second compound 0.0316 µM, first compound 0.0949 µM): 0.24%
- viability, T/C (second compound 0.0316 µM, first compound 0.3 µM): 2.04%
- viability, T/C (second compound 0.1 µM, first compound 0.000949 µM): 85.5%
- viability, T/C (second compound 0.1 µM, first compound 0.003 µM): 63.1%
- viability, T/C (second compound 0.1 µM, first compound 0.00949 µM): 2%
- viability, T/C (second compound 0.1 µM, first compound 0.03 µM): 0.33%
- viability, T/C (second compound 0.1 µM, first compound 0.0949 µM): 0.27%
- viability, T/C (second compound 0.1 µM, first compound 0.3 µM): 3.67%
- viability, T/C (second compound 0.316 µM, first compound 0.000949 µM): 6.64%
- viability, T/C (second compound 0.316 µM, first compound 0.003 µM): 5.3%
- viability, T/C (second compound 0.316 µM, first compound 0.00949 µM): 0.71%
- viability, T/C (second compound 0.316 µM, first compound 0.03 µM): 0.38%
- viability, T/C (second compound 0.316 µM, first compound 0.0949 µM): 0.51%
- viability, T/C (second compound 0.316 µM, first compound 0.3 µM): 2.72%
- viability, T/C (second compound 1 µM, first compound 0.000949 µM): 0.49%
- viability, T/C (second compound 1 µM, first compound 0.003 µM): 1.07%
- viability, T/C (second compound 1 µM, first compound 0.00949 µM): 0.68%
- viability, T/C (second compound 1 µM, first compound 0.03 µM): 0.63%
- viability, T/C (second compound 1 µM, first compound 0.0949 µM): 2.26%
- viability, T/C (second compound 1 µM, first compound 0.3 µM): 1.33%
- viability, T/C (second compound 3.16 µM, first compound 0.000949 µM): 0.5%
- viability, T/C (second compound 3.16 µM, first compound 0.003 µM): 2.35%
- viability, T/C (second compound 3.16 µM, first compound 0.00949 µM): 0.66%
- viability, T/C (second compound 3.16 µM, first compound 0.03 µM): 0.53%
- viability, T/C (second compound 3.16 µM, first compound 0.0949 µM): 1.54%
- viability, T/C (second compound 3.16 µM, first compound 0.3 µM): 2.08%
- viability, T/C (second compound 10 µM, first compound 0.000949 µM): 0.27%
- viability, T/C (second compound 10 µM, first compound 0.003 µM): 0.26%
- viability, T/C (second compound 10 µM, first compound 0.00949 µM): 1.83%
- viability, T/C (second compound 10 µM, first compound 0.03 µM): 0.24%
- viability, T/C (second compound 10 µM, first compound 0.0949 µM): 0.3%
- viability, T/C (second compound 10 µM, first compound 0.3 µM): 2.65%

- IC50 (curve of compound): < 0.0316 µM
SMILES: CC(=O)O[C@H]1C(=O)[C@@]2(C)[C@H]([C@H](OC(=O)c3ccccc3)[C@]3(O)C[C@H](OC(=O)[C@H](O)[C@@H](NC(=O)c4ccccc4)c4ccccc4)C(C)=C1C3(C)C)[C@]1(OC(C)=O)CO[C@@H]1C[C@@H]2O
- viability, T/C (compound 0.0316 µM): 34.8%
- viability, T/C (compound 0.1 µM): 28.4%
- viability, T/C (compound 0.316 µM): 30.7%
- viability, T/C (compound 1 µM): 27.8%
- viability, T/C (compound 3.16 µM): 38.6%
- viability, T/C (compound 10 µM): 29.1%

SMILES: CC1COCCN1c1cc(C2(S(C)(=N)=O)CC2)nc(-c2ccnc3[nH]ccc23)n1 (stereo unspecified) + CN1CCN(c2cc(C(=O)Nc3cc4cc(-c5cnn(C)c5)ccc4cn3)ccn2)CC1
- IC50 [1]: 3.82 µM
- IC50 [2]: 1.93 µM
- IC50 [3]: < 0.0316 µM
- IC50 [4]: < 0.0316 µM
- IC50 [5]: < 0.0316 µM
- IC50 [6]: < 0.0316 µM
- viability, T/C [7]: 107%
- viability, T/C [8]: 99.8%
- viability, T/C [9]: 102%
- viability, T/C [10]: 82.8%
- viability, T/C [11]: 53.3%
- viability, T/C [12]: 34.5%
- viability, T/C [13]: 94.5%
- viability, T/C [14]: 83.4%
- viability, T/C [15]: 73.3%
- viability, T/C [16]: 70.1%
- viability, T/C [17]: 35.6%
- viability, T/C [18]: 22.4%
- viability, T/C [19]: 7.43%
- viability, T/C [20]: 5.54%
- viability, T/C [21]: 5.89%
- viability, T/C [22]: 5.38%
- viability, T/C [23]: 4.22%
- viability, T/C [24]: 5.13%
- viability, T/C [25]: 0.53%
- viability, T/C [26]: 0.67%
- viability, T/C [27]: 2.64%
- viability, T/C [28]: 0.45%
- viability, T/C [29]: 0.65%
- viability, T/C [30]: 1.19%
- viability, T/C [31]: 0.65%
- viability, T/C [32]: 0.51%
- viability, T/C [33]: 1.73%
- viability, T/C [34]: 0.46%
- viability, T/C [35]: 0.61%
- viability, T/C [36]: 0.43%
- viability, T/C [37]: 0.36%
- viability, T/C [38]: 0.42%
- viability, T/C [39]: 1.59%
- viability, T/C [40]: 0.41%
- viability, T/C [41]: 1.27%
- viability, T/C [42]: 1.47%

- IC50 [1]: 8.41 µM
- IC50 [2]: 7.09 µM
- IC50 [3]: 9.3 µM
- IC50 [4]: 5.67 µM
- IC50 [5]: 4.11 µM
- IC50 [6]: 3.9 µM
SMILES: CC1(C)CCC(CN2CCN(c3ccc(C(=O)NS(=O)(=O)c4ccc(NCC5CCOCC5)c([N+](=O)[O-])c4)c(Oc4cnc5[nH]ccc5c4)c3)CC2)=C(c2ccc(Cl)cc2)C1 + CNC(=O)c1ccc(Nc2nc(OC3CCCC3)c3c(-c4ccc5nc(C)oc5c4)c[nH]c3n2)c(OC)c1
- viability, T/C [7]: 87.7%
- viability, T/C [8]: 93.6%
- viability, T/C [9]: 86.4%
- viability, T/C [10]: 92.4%
- viability, T/C [11]: 84.4%
- viability, T/C [12]: 43.8%
- viability, T/C [13]: 75.1%
- viability, T/C [14]: 73.3%
- viability, T/C [15]: 76.8%
- viability, T/C [16]: 82.8%
- viability, T/C [17]: 72.8%
- viability, T/C [18]: 39.9%
- viability, T/C [19]: 75.8%
- viability, T/C [20]: 76.2%
- viability, T/C [21]: 73.6%
- viability, T/C [22]: 85.3%
- viability, T/C [23]: 71%
- viability, T/C [24]: 48.5%
- viability, T/C [25]: 71%
- viability, T/C [26]: 71.7%
- viability, T/C [27]: 73.5%
- viability, T/C [28]: 67.3%
- viability, T/C [29]: 61.1%
- viability, T/C [30]: 39.5%
- viability, T/C [31]: 59.5%
- viability, T/C [32]: 56.2%
- viability, T/C [33]: 61.5%
- viability, T/C [34]: 62.5%
- viability, T/C [35]: 52.6%
- viability, T/C [36]: 35.5%
- viability, T/C [37]: 55.8%
- viability, T/C [38]: 55.2%
- viability, T/C [39]: 54.3%
- viability, T/C [40]: 50.1%
- viability, T/C [41]: 54.4%
- viability, T/C [42]: 32.9%

- IC50 (curve of compound): 6.38 µM and 4.15 µM
SMILES: COC1C=CCC(C)C(C)S(=O)(=O)NC(=O)c2ccc3c(c2)N(CC2CCC21)CC1(CCCc2cc(Cl)ccc21)CO3 (stereo unspecified)
- viability, T/C (compound 0.0316 µM): 99.2% and 100%
- viability, T/C (compound 0.1 µM): 95.3% and 65.2%
- viability, T/C (compound 0.316 µM): 89.4% and 82.5%
- viability, T/C (compound 1 µM): 75.1% and 74.3%
- viability, T/C (compound 3.16 µM): 60.6% and 58.6%
- viability, T/C (compound 10 µM): 43.4% and 26%

SMILES: Nc1ccn(C2OC(CO)C(O)C2(F)F)c(=O)n1 (stereo unspecified)
- viability, T/C (compound 0.0316 µM): 89.3% and 93.5%
- viability, T/C (compound 0.1 µM): 67.2% and 76.4%
- viability, T/C (compound 0.316 µM): 57.7% and 72.4%
- viability, T/C (compound 1 µM): 44.9% and 58%
- viability, T/C (compound 3.16 µM): 50.7% and 63.3%
- viability, T/C (compound 10 µM): 44.3% and 53.2%
